Data published in patent US4020076A, “Novel phosphoryloxy-thiazoles” (priority 1974, dated 1977).
Like-named read-outs stand apart in the source and are kept apart here.

Key:
Format in all cases: in vivo
Drosophila melanogaster = assay: Vapor activity against Drosophila melanogaster; conditions: inhaled or nasal, read-out: percentage of mortality
Description: a. Activity against Drosophila melanogaster
This test measures the vapor activity of the compounds and the less than 48 hours old insects were placed in a Petri dish with a 10 cm diameter connected by a tergal screen to a crystallizer of the same diameter in which the test compound in acetone solution is placed. The said solution is evaporated after the insects have been placed and 3 tests with 25 insects were run for each concentration. The results are expressed in Table I as a percentage of mortality after 1, 2, 4 and 6 hours.

Sitophilus granarius = assay: Topical application test against Sitophilus granarius; conditions: read-out: percent mortality
Description: c. Test against Sitophilus granarius
This topical application test comprised preparing the test compounds in acetone solution at concentrations of 5000, 500 and 50 mg of the active compound per liter and 0.2 μl of the solutions were applied to the ventral thorax of 50 Sitophilus granarius for each concentration.

Musca domestica = assay: Topical application activity against Musca domestica; conditions: read-out: percent of mortality
Description: d. Activity against Musca domestica
This topical application test consisted of placing a microliter of an acetone solution of the test product on the dorsal thorax of Musca domestica after having been put to sleep with ether. The insects were held at 20° C and 50% relative humidity and were fed milk and water.

Spodoptera littoralis = assay: Ingestion test against Spodoptera littoralis caterpillars; conditions: po, ingestion, read-out: percent of mortality
Description: e. Activity against Spodoptera littoralis
This test was effected with Spodoptera littoralis caterpillars 1 to 1.5 cm long and an average of 10 days old. In this ingestion test, 4 ml of an acetone solution of the test products was placed on lettuce rings with an 8 mm diameter which were placed in closed plastic dishes with a 5 cm diameter. 15 caterpillars were placed in each dish and were held at 20° C and 50% relative humidity and were fed when the insects had eaten the treated lettuce ring.

Musca domestica larvae = assay: Contact-ingestion test against Musca domestica larvae; conditions: read-out: percent of mortality
Description: g. Activity against Musca domestica larvae
This contact-ingestion test consisted of placing 2 ml of an acetone solution of different concentrations of the test product on 1 g of bran placed in a watch glass and the solvent was evaporated. The treated bran was placed in a plastic dish and was admixed with 2 ml of milk. 20 3 to 4 day old larvae of Musca domestica were added to the bran and were held at 20° C and 30% relative humidity and 3 tests were conducted for each concentration.

[1] = test system: Ditylenchus Myceliophagus; assay: Acaricide activity, Ditylenchus Myceliophagus; conditions: 24 h, read-out: Percent of mortality after 24 hours
Description: In an apparatus containing 10 ml of an aqueous solution of the test product, 0.5 ml of water containing about 2000 acariens of Ditylenchus Myceliophagus were added thereto and the percent of mortality was determined by a binocular magnifying glass after 24 hours.

Panagrellus silusiae = assay: Nematocidal activity against Panagrellus silusiae
Description: b. Activity against Panagrellus silusiae
30 nematodes were placed on a watch glass and three tests were run for each concentration. The 3 watch glasses for each treatment were placed in a Petri dish with a 15 cm diameter containing a film of water in a manner to retard evaporation of the solution to wet the nematodes. The concentration of the product was 125 mg of MA/L and 1 ml of toxic solution was placed on each watch glass containing the nematodes in 0.5 ml of water.

Question: `CCCCOc1nc(OP(=S)(OC)OC)c(C#N)s1` [Compound B, 2-n-butoxy-4-dimethoxythiophosphoryloxy-5-cyano-thiazole] was tested. Which mortality at 5 ppm (Drosophila melanogaster; 1 H) did it give?
Answer: Its mortality at 5 ppm is 0%.

Question: What about the mortality at 50 ppm (Drosophila melanogaster; 1 H) of the same molecule?
Answer: The mortality at 50 ppm was 77%.

Question: What about the mortality at 500 ppm (Drosophila melanogaster; 1 H) of the same molecule?
Answer: Its mortality at 500 ppm is 100%.

Question: What about the mortality at 5 ppm (Drosophila melanogaster; 4 H) of the same molecule?
Answer: The mortality at 5 ppm was 100%.

Question: What about the mortality at 50 ppm (Drosophila melanogaster; 4 H) of the same molecule?
Answer: The mortality at 50 ppm was 100%.

Question: And the mortality at 500 ppm (Drosophila melanogaster; 4 H)?
Answer: Its mortality at 500 ppm is 100%.

Question: And the mortality at 5 ppm (Drosophila melanogaster; 6 H)?
Answer: The mortality at 5 ppm was 100%.

Question: And the mortality at 50 ppm (Drosophila melanogaster; 6 H)?
Answer: The mortality at 50 ppm was 100%.

Question: And the mortality at 500 ppm (Drosophila melanogaster; 6 H)?
Answer: The mortality at 500 ppm was 100%.

Question: And the mortality at 50 ppm (Sitophilus granarius; 4 H)?
Answer: Its mortality at 50 ppm is 0%.

Question: What about the mortality at 500 ppm (Sitophilus granarius; 4 H) of the same molecule?
Answer: Its mortality at 500 ppm is 96%.

Question: And the mortality at 5000 ppm (Sitophilus granarius; 4 H)?
Answer: The mortality at 5000 ppm was 100%.

Question: What about the mortality at 50 ppm (Sitophilus granarius; 24 H) of the same molecule?
Answer: Its mortality at 50 ppm is 0%.

Question: What about the mortality at 500 ppm (Sitophilus granarius; 24 H) of the same molecule?
Answer: The mortality at 500 ppm was 100%.

Question: And the mortality at 5000 ppm (Sitophilus granarius; 24 H)?
Answer: Its mortality at 5000 ppm is 100%.

Question: What about the mortality at 50 ppm (Sitophilus granarius; 120 h, 5 Days) of the same molecule?
Answer: The mortality at 50 ppm was 0%.

Question: What about the mortality at 500 ppm (Sitophilus granarius; 120 h, 5 Days) of the same molecule?
Answer: Its mortality at 500 ppm is 100%.

Question: And the mortality at 5000 ppm (Sitophilus granarius; 120 h, 5 Days)?
Answer: The mortality at 5000 ppm was 100%.

Question: What about the mortality at 500 ppm (Musca domestica; 1 H) of the same molecule?
Answer: Its mortality at 500 ppm is 96%.

Question: What about the mortality at 2500 ppm (Musca domestica; 1 H) of the same molecule?
Answer: Its mortality at 2500 ppm is 100%.

Question: What about the mortality at 5000 ppm (Musca domestica; 1 H) of the same molecule?
Answer: The mortality at 5000 ppm was 100%.

Question: What about the mortality at 500 ppm (Musca domestica; 24 H) of the same molecule?
Answer: Its mortality at 500 ppm is 100%.

Question: What about the mortality at 2500 ppm (Musca domestica; 24 H) of the same molecule?
Answer: Its mortality at 2500 ppm is 100%.

Question: What about the mortality at 5000 ppm (Musca domestica; 24 H) of the same molecule?
Answer: The mortality at 5000 ppm was 100%.

Question: And the mortality at 125 ppm (Spodoptera littoralis; 1 H)?
Answer: The mortality at 125 ppm was 0%.

Question: What about the mortality at 250 ppm (Spodoptera littoralis; 1 H) of the same molecule?
Answer: The mortality at 250 ppm was 0%.

Question: And the mortality at 500 ppm (Spodoptera littoralis; 1 H)?
Answer: The mortality at 500 ppm was 0%.

Question: And the mortality at 125 ppm (Spodoptera littoralis; 24 H)?
Answer: The mortality at 125 ppm was 50%.

Question: And the mortality at 250 ppm (Spodoptera littoralis; 24 H)?
Answer: Its mortality at 250 ppm is 100%.

Question: And the mortality at 500 ppm (Spodoptera littoralis; 24 H)?
Answer: The mortality at 500 ppm was 100%.

Question: What about the mortality at 125 ppm (Spodoptera littoralis; 48 H) of the same molecule?
Answer: Its mortality at 125 ppm is 90%.

Question: What about the mortality at 250 ppm (Spodoptera littoralis; 48 H) of the same molecule?
Answer: The mortality at 250 ppm was 100%.

Question: What about the mortality at 500 ppm (Spodoptera littoralis; 48 H) of the same molecule?
Answer: Its mortality at 500 ppm is 100%.

Question: What about the mortality at 500 ppm (Musca domestica larvae; 48 H) of the same molecule?
Answer: Its mortality at 500 ppm is 88%.

Question: What about the mortality at 5000 ppm (Musca domestica larvae; 48 H) of the same molecule?
Answer: The mortality at 5000 ppm was 93%.

Question: And the mortality at 500 ppm (Musca domestica larvae; 192 h, 8 Days)?
Answer: The mortality at 500 ppm was 98%.

Question: What about the mortality at 5000 ppm (Musca domestica larvae; 192 h, 8 Days) of the same molecule?
Answer: The mortality at 5000 ppm was 98%.

Question: What about the mortality at 1 µg/mL ([1]; 0.001 g/l) of the same molecule?
Answer: Its mortality at 1 µg/mL is 43.3%.

Question: And the mortality at 10 µg/mL ([1]; 0.010 g/l)?
Answer: The mortality at 10 µg/mL was 95.9%.

Question: What about the mortality at 100 µg/mL ([1]; 0.1 g/l) of the same molecule?
Answer: The mortality at 100 µg/mL was 98.5%.

Question: What about the mortality at 1 µg/mL (Panagrellus silusiae; 0.001 g/l, 24 hours) of the same molecule?
Answer: Its mortality at 1 µg/mL is 89.3%.

Question: What about the mortality at 10 µg/mL (Panagrellus silusiae; 0.01 g/l, 24 hours) of the same molecule?
Answer: Its mortality at 10 µg/mL is 100%.

Question: And the mortality at 100 µg/mL (Panagrellus silusiae; 24 h, read-out: % of mortality)?
Answer: The mortality at 100 µg/mL was 100%.
